These antisense oligonucleotides have a phosphorothioate backbone; sugars and methylation of C are not fully specified.

The conditions of the data set: ASO.
Further: test concentration or dose not given here.

As to AAAGAAGGGATAAGCACT, the remaining target (mRNA or protein) (fraction of control) turned out to be 0.93.

In the case of AAAGCCATAGCCAGTTGC, the remaining target (mRNA or protein) (fraction of control) was at least 1. As for AAAGCCGTGGTGAACTGACT, the figure is 0.84; as for AAATAGGTAGCCAGGTGG, 0.99; as for AAATGGCCGTTTTGCTCC, at least 1.

As for AACGTGGTCACTTTATAG, the remaining target (mRNA or protein) (fraction of control) worked out at 0.73. As for AACTGAAATAACAACTTA, the figure is 0.94; as for AAGACAATGTGGAATCGG, at least 1. As for AAGGTGCTCTTCCCGCTC, the figure is 0.29; as for AAGGTTAAGATGCAGCAT, 0.55; as for AAGTCCAAGACAGAATCTGT, 0.46. As for AATCTTTAATTTCAGCCC, the figure is at least 1; as for AATTCTGCCAGGTTGCTG, at least 1. Sequence ACAGATCCAGTGGCTTGT came in with a remaining target (mRNA or protein) (fraction of control) of at least 1.

Sequence ACAGTGTTTTCCGCGGT gave a remaining target (mRNA or protein) (fraction of control) of 0.53. As for ACATTGAGGGAGTCGTTG, the figure is at least 1; as for ACCACAGAACTGAAGGTT, at least 1; as for ACCAGCCCCGAGCGTTTG, 0.74. ACGTAGCCCTCCTCGGTG yielded a remaining target (mRNA or protein) (fraction of control) of at least 1.

On to ACTGCCTTCTCTGCCCACTT, for which the remaining target (mRNA or protein) (fraction of control) was 0.41. AGAAAAGGAAATCCCAAA showed a remaining target (mRNA or protein) (fraction of control) of at least 1. As for AGAGGCAGAGAAGAGAGC, the figure is 0.93; as for AGCCAAATGGGAACTCACAG, 0.74; as for AGCGCCACACGCGACAGTAA, 0.56. As for AGCTCCCTTCTTACTCCC, the figure is 0.69. As for AGCTCGCGCGAACCCCTA, the figure is at least 1; as for AGGAGGCAGTACTGGAGTCT, 0.7. Sequence AGGCTGCTGGAAAGAGTCAG showed a remaining target (mRNA or protein) (fraction of control) of 0.53. As for AGGGAATAAATACAAAAG, the figure is at least 1; as for AGGGAGGCTGCCTTTTCC, 0.63. As for AGGTAGTACACGGCTGAA, the figure is 0.28; as for AGGTGACACGCCCGGAGA, at least 1. As for AGTAGGTTTTGGTGGTTT, the figure is at least 1; as for AGTGCATAAGAGGCCACAGC, 0.56. Consider ATCAGACTGGAGAGGAGC, for which the remaining target (mRNA or protein) (fraction of control) was found to be 0.73.

The sequence ATCCCCTGATTTCTTCAC came in with a remaining target (mRNA or protein) (fraction of control) of 0.53. As for ATCCGCAGGTTGGTTTTC, the figure is at least 1; as for ATCCTTTGTATTTCTTTC, 0.85; as for ATCGTGCGCCCTTCTTGC, at least 1. As for ATCTTCTTCTCTTTCCTT, the figure is at least 1; as for ATTCAGCATTTTGTAAGG, 0.99; as for ATTCTCCCAAAGCGTCCC, 0.81. As for ATTGGTCTCTCGTCTTTC, the figure is at least 1; as for ATTTCACTGTAAACGGCT, 0.81. In turn, ATTTCCTGGGATGTGCGG came in with a remaining target (mRNA or protein) (fraction of control) of 0.48. As for ATTTCTCTCGTCCGCAAA, the figure is 0.34. As for CAAAACCTAAATCCCTGG, the figure is at least 1; as for CAAAGCGCTTAACTACAT, at least 1; as for CACCCTGGCATCCCAAAT, 0.13.

For the sequence CACCGATGCAGAGGTCGC, the remaining target (mRNA or protein) (fraction of control) came out at 0.87.

Consider CACCTGCAGCCGCCCGTCCA, for which the remaining target (mRNA or protein) (fraction of control) was 0.55. The sequence CACTCTCGGGCAGCCAGC yielded a remaining target (mRNA or protein) (fraction of control) of 0.91.

CAGCACCCCAACCCTTAACA: the remaining target (mRNA or protein) (fraction of control) stood at 0.47.

In turn, CAGCGAGTACGTGACGGT returned a remaining target (mRNA or protein) (fraction of control) of 0.93. As for CAGGTAGATGAGGGCGAT, the figure is 0.74. CATAAGAGGCCACAGCAGGC registered a remaining target (mRNA or protein) (fraction of control) of 0.41. Turning to CCAAAGAGCTGCTGGGAA, the remaining target (mRNA or protein) (fraction of control) is at least 1. In the case of CCAACAAAACAGTCCAAA, the remaining target (mRNA or protein) (fraction of control) was determined as 0.94. As for CCACCACTACAGAGCAGG, the figure is at least 1; as for CCACCGCCGCCGCCGCTG, 0.62; as for CCACTAGAGTGCGCCAGA, at least 1. As for CCACTCCCACCTCCCACC, the figure is at least 1. Turning to CCAGGCTAAACCAGGCTG, the remaining target (mRNA or protein) (fraction of control) was 0.43. For CCATCTATGAGCACACTTCG, the remaining target (mRNA or protein) (fraction of control) amounted to 0.33. As for CCATGGTGCGGTGGCCTC, the figure is 0.94; as for CCCAGGCGGAGGTCGGCG, at least 1; as for CCCCACGCTGCCCTCGGA, 0.8.

The sequence CCCCTCCACAAAAGTGCC gave a remaining target (mRNA or protein) (fraction of control) of 0.78.

As for CCCGCACGTCCTTGAAGA, the remaining target (mRNA or protein) (fraction of control) stood at 0.27. As for CCCGGGCAGCTGAGAGCCCT, the figure is 0.72; as for CCCTAGTCCACAGGTTCC, at least 1; as for CCGCCAGAAAGACCCCAC, at least 1. As for CCGCTCTTGGGTCTGGCA, the figure is 0.29; as for CCGTGGATGATCCGCATC, at least 1.

CCTAGCAGTCTCTTCACTGC returned a remaining target (mRNA or protein) (fraction of control) of 0.74. As for CCTCCACAGCCACTGCAT, the figure is 0.97; as for CCTCCGCCCTCTCTTGCC, 0.8; as for CCTGTTTACTGCTCTCCC, 0.8. As for CCTTCAAAAGTTGTGCGG, the figure is at least 1; as for CCTTCAGCAAAACAAAAC, 0.76. As for CCTTGAAGACCTTGCGGA, the figure is 0.14; as for CGCACAGCCCTTCACGGCAA, 0.32; as for CGCATGGACACGAAGATG, at least 1. CGCCCGCCGGTGCCGCCT had a remaining target (mRNA or protein) (fraction of control) of 0.47. As for CGCCCGGCGGCTCTTTCT, the figure is at least 1.

The values are drawn from the OligoGym collection.
